From ChEMBL document CHEMBL1146829, “Acetylene-based analogues of thiolactomycin, active against Mycobacterium tuberculosis mtFabH fatty acid condensing enzyme” (Bioorg Med Chem Lett, 2004)

Experiment: Inhibitory activity against recombinant Mycobacterium tuberculosis beta-ketoacyl-Acyl Carrier Protein synthase mtFabH condensing enzyme

Structure (SMILES) | IC50
CC1=C(O)C(C)(CC#Cc2ccc([N+](=O)[O-])cc2)SC1=O (centres undefined) | 34 µM
CC(=O)c1ccc(C#CCC2(C)SC(O)=C(C)C2=O)cc1O (centres undefined) | 7 µM
COC(=O)c1ccc(C#CCC2(C)SC(O)=C(C)C2=O)cc1 (centres undefined) | 74 µM
CC(=O)c1ccc(C#CCC2(C)SC(O)=C(C)C2=O)cc1 (centres undefined) | 4 µM
C#CCC1(C)SC(=O)C(C)=C1O (centres undefined) | 100 µM
C=C/C(C)=C/[C@@]1(C)SC(=O)C(C)=C1O [THIOLACTOMYCIN] | 74.9 µM
CC1=C(O)C(C)(CC#Cc2ccc(C#N)cc2)SC1=O (centres undefined) | 7 µM
CC1=C(O)C(C)(Cc2ccc(-c3ccc(COCc4ccccc4)cc3)cc2)SC1=O (centres undefined) | 17 µM
CC1=C(O)C(C)(CC#Cc2ccccc2C#N)SC1=O (centres undefined) | 48 µM
